For assay [1], the target named is T1, Peroxisome proliferator-activated receptor alpha (Homo sapiens, UniProt Q07869).
T1 sequence (Q07869 whole entry): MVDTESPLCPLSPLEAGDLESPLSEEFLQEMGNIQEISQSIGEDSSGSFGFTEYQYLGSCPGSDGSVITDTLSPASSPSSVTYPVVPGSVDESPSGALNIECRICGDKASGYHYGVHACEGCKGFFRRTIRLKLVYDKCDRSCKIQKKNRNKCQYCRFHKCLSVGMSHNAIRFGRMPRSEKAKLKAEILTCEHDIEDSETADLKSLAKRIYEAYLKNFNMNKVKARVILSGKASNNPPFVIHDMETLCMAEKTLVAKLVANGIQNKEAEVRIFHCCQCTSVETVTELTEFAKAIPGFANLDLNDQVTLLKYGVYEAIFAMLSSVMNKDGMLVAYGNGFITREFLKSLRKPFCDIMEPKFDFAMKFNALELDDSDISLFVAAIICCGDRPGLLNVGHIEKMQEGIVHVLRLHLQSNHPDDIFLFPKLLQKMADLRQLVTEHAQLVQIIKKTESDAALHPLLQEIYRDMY
In words: PPAR alpha Fluorescence Polarization Assay. The following applies: pH 8; 22 °C.

The target of assay [2] is T2, Peroxisome proliferator-activated receptor alpha (Mesocricetus auratus, UniProt Q7TNH1).
T2 sequence (Q7TNH1 whole entry): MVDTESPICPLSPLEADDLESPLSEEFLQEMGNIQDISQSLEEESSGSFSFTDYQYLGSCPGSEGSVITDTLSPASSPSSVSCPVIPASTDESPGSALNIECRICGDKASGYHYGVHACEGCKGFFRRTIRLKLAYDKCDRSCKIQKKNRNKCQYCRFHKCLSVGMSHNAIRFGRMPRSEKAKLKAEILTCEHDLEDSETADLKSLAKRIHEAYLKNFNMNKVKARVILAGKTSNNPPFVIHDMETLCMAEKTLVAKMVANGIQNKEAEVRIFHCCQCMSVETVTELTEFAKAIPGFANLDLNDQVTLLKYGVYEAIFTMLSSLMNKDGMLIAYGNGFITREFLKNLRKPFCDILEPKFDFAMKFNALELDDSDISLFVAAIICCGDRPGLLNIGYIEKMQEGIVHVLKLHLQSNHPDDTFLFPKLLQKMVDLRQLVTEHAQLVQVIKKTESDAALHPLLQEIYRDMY

Assay [3] has as its target T3, Peroxisome proliferator-activated receptor alpha (Rattus norvegicus, UniProt P37230).
T3 sequence (P37230 whole entry): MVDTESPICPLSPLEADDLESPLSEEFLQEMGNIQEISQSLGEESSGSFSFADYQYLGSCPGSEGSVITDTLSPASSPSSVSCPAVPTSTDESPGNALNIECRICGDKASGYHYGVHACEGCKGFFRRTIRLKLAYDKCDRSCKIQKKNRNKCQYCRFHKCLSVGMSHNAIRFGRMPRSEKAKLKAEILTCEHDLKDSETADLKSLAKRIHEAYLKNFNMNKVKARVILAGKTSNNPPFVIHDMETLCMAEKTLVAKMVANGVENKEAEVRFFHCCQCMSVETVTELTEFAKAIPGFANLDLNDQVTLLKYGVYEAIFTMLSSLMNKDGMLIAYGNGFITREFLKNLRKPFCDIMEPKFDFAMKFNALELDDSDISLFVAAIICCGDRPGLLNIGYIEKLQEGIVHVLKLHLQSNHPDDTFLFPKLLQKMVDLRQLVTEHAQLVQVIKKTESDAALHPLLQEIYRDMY

Assay [4] deals with T4, Peroxisome proliferator-activated receptor alpha (Mus musculus, UniProt P23204).
T4 sequence (P23204 whole entry): T3 sequence (P37230 whole entry) with L41I, S50G, A85V, V86I, T88A, N96S, A135V, A207G, N265D

Assay [5] concerns the target T5, Peroxisome proliferator-activated receptor gamma (Homo sapiens, UniProt P37231).
T5 sequence (P37231 whole entry): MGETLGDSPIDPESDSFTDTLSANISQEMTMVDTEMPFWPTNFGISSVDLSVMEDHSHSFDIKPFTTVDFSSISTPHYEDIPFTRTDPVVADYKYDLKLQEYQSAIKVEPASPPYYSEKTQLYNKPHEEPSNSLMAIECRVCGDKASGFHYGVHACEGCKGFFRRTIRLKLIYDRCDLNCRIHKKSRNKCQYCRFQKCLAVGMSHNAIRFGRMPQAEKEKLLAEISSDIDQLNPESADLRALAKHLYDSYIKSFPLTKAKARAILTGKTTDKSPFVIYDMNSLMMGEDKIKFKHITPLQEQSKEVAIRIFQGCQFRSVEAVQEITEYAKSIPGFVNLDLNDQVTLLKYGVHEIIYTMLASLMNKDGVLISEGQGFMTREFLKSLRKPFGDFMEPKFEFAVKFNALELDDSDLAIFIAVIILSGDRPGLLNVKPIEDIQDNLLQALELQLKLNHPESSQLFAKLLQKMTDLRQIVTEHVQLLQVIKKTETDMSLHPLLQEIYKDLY
In words: PPAR gamma Fluorescence Polarization Assay. As to conditions: pH 8; 22 °C. In general terms: Fluorescence polarisation rises when a labelled molecule tumbles more slowly, as on binding a larger partner.

For assay [6], the target named is T6, Peroxisome proliferator-activated receptor delta (Homo sapiens, UniProt Q03181).
T6 sequence (Q03181 whole entry): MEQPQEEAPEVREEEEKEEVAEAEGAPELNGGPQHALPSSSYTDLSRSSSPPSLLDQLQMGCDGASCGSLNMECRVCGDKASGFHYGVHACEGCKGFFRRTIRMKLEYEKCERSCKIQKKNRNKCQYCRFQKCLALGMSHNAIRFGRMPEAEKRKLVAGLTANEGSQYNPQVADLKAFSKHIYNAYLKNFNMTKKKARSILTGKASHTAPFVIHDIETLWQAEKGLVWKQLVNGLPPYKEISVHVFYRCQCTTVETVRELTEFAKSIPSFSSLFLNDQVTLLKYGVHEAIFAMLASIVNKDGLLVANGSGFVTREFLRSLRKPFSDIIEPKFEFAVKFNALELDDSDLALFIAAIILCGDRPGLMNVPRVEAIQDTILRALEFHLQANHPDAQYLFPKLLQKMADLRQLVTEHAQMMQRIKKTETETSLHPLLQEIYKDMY

Experimental findings from BindingDB's records for doi:10.1124/jpet.108.143271 (Bristol-Myers Squibb, 2008) are described below.

The structures appear in SMILES notation. Residue numbers refer to the chain shown, from its start.

The term EC50 denotes the concentration at which the effect is half-maximal. A high value points to a less potent agent. Usually IC50 stands for the point on the concentration scale where inhibition reaches its midpoint. Low readings indicate greater potency in that assay, high ones weaker potency in that assay. Turning to `CC(Oc1ccc(Oc2ccc(Cl)cc2)cc1)C(=O)O` (configuration not stated) [Clofop], the EC50 was 11.6 µM in assay [1], 28.7 µM in assay [2], 17.7 µM in assay [3] and 18.5 µM in assay [4]. The same compound showed a 50% inhibitory concentration (IC50) in assay [1] above 98.4 µM.

Take `COC(=O)N(CC(=O)O)Cc1cc(OCc2nc(-c3ccc(Cl)cc3)oc2C)ccc1F` [2-{[(5-{[2-(4-chlorophenyl)-5-methyl-1,3-oxazol-4-yl]methoxy}-2-fluorophenyl)methyl](methoxycarbonyl)amino}acetic acid]: the half-maximal inhibitory concentration (IC50) in assay [1] was 0.097 µM; in assay [5] it was above 15 µM. The EC50 is 0.178 µM in assay [2], 0.123 µM in assay [3], above 25 µM in assay [6] and 0.145 µM in assay [4].

Consider `COC(=O)N(CC(=O)O)Cc1cccc(OCc2nc(-c3ccc(Cl)cc3)oc2C)c1` [2-{[(3-{[2-(4-chlorophenyl)-5-methyl-1,3-oxazol-4-yl]methoxy}phenyl)methyl](methoxycarbonyl)amino}acetic acid], for which the half-maximal effective concentration (EC50) in assay [3] came to 0.317 µM.
